US9540330B2, “Oligomer-containing hydantoin compounds” (Nektar Therapeutics, priority 2010, dated 2017)

How the values were obtained:
[1] = target: T1, cloned human hERG channel (Homo sapiens, UniProt Q12809); test: hERG current block in HEK cells, whole-cell patch clamp; type: cell-based; settings: HEK cells expressing cloned human hERG channel, 37±1° C., peak current at −40 mV; read-out: hERG (μM), IC50 for inhibition of hERG
T1 construct: expressed in transfected cells; host or cells: HEK cells
Method: Electrophysiological measurements of hERG current were made in vitro to assess the hERG block produced by the phenyloin conjugates. hERG currents were measured in HEK cells expressing the cloned human hERG channel using the whole-cell variant of the patch clamp method. Experiments were performed at 37±1° C. hERG current was elicited by a step pulse to +10 mV for 500 ms from a holding potential of −75 mV, followed by a pulse to −40 mV for 500 ms. Peak current was measured from the pulse to −40 mV. Six concentrations of each test compound were added to the cell in a cumulative manner starting with the lowest test concentration. Each cell served as its own control and data are presented as % reduction of current amplitude achieved in the presence of drug.

[2] = target: sodium channels in isolated cardiac cells (human atrial myocytes) (Homo sapiens, UniProt Q14524); test: Sodium current (INa) block in isolated human atrial myocytes, whole-cell patch clamp; type: cell-based; settings: pacing rates 0.1, 1 and 3 Hz, FIG. 2
Method: Phenyloin and compounds prepared in accordance with Example 1 were evaluated in vitro to determine their ability to block sodium channels in isolated cardiac cells (human atrial myocytes) using the whole-cell patch clamp method
Human myocytes were obtained from specimens of human right atrial appendages obtained during surgery from hearts of patients undergoing cardiopulmonary bypass surgery. The procedure produced rod-shaped, ion tolerant cells which were used within 24 hours after isolation. See Crumb et al. (1995) Am J Physiol 268:H1335-H1342. […]
After rupture of the cell membrane (entering whole-cell mode), current kinetics and amplitudes were allowed to stabilize as the cell was dialyzed with internal solution and paced at 3 Hz (3-5 minutes). Sodium current (INa) was measured using a voltage pulse to −20 mV (40 ms pulse duration) from a holding potential of −80 mV. Peak inward current was measured for INa. […]
Currents and voltages were recorded with patch-clamp amplifiers (Axopatch 1-B, Axon Instruments). […] Data was presented as % reduction of current amplitude, measured as current reduction after a steady-state effect had been reached in the presence of test article relative to current amplitude before introduction of test article (control). […]

T1 sequence (Q12809 whole entry): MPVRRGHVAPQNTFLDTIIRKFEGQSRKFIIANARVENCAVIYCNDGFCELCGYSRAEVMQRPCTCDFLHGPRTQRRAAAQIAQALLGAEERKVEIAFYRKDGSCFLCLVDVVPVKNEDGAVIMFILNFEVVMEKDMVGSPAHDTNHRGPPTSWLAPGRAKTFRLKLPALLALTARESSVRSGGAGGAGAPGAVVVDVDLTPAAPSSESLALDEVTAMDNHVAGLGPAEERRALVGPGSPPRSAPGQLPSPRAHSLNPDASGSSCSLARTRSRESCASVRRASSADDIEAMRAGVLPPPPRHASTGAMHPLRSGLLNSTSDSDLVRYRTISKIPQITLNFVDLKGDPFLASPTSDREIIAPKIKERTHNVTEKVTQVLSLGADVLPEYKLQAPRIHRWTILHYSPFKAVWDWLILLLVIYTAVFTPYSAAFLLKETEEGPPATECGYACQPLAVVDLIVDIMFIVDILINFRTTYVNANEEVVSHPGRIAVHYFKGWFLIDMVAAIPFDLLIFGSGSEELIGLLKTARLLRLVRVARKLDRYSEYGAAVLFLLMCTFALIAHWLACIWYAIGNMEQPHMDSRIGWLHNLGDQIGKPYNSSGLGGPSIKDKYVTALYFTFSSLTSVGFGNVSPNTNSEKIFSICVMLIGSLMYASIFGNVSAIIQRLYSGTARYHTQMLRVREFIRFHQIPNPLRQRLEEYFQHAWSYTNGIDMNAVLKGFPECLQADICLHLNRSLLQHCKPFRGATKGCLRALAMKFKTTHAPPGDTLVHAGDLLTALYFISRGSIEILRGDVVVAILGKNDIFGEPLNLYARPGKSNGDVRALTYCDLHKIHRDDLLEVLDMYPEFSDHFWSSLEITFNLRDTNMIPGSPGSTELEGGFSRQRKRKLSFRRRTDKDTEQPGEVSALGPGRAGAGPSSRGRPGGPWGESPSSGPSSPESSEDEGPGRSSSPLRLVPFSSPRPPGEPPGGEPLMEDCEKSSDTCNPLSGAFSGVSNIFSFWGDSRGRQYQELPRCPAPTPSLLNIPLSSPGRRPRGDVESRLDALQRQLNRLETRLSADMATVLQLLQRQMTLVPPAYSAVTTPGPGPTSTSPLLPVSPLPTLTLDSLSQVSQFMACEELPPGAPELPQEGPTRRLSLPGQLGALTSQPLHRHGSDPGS
Chain of sodium channels in isolated cardiac cells (human atrial myocytes) (Q14524 whole entry): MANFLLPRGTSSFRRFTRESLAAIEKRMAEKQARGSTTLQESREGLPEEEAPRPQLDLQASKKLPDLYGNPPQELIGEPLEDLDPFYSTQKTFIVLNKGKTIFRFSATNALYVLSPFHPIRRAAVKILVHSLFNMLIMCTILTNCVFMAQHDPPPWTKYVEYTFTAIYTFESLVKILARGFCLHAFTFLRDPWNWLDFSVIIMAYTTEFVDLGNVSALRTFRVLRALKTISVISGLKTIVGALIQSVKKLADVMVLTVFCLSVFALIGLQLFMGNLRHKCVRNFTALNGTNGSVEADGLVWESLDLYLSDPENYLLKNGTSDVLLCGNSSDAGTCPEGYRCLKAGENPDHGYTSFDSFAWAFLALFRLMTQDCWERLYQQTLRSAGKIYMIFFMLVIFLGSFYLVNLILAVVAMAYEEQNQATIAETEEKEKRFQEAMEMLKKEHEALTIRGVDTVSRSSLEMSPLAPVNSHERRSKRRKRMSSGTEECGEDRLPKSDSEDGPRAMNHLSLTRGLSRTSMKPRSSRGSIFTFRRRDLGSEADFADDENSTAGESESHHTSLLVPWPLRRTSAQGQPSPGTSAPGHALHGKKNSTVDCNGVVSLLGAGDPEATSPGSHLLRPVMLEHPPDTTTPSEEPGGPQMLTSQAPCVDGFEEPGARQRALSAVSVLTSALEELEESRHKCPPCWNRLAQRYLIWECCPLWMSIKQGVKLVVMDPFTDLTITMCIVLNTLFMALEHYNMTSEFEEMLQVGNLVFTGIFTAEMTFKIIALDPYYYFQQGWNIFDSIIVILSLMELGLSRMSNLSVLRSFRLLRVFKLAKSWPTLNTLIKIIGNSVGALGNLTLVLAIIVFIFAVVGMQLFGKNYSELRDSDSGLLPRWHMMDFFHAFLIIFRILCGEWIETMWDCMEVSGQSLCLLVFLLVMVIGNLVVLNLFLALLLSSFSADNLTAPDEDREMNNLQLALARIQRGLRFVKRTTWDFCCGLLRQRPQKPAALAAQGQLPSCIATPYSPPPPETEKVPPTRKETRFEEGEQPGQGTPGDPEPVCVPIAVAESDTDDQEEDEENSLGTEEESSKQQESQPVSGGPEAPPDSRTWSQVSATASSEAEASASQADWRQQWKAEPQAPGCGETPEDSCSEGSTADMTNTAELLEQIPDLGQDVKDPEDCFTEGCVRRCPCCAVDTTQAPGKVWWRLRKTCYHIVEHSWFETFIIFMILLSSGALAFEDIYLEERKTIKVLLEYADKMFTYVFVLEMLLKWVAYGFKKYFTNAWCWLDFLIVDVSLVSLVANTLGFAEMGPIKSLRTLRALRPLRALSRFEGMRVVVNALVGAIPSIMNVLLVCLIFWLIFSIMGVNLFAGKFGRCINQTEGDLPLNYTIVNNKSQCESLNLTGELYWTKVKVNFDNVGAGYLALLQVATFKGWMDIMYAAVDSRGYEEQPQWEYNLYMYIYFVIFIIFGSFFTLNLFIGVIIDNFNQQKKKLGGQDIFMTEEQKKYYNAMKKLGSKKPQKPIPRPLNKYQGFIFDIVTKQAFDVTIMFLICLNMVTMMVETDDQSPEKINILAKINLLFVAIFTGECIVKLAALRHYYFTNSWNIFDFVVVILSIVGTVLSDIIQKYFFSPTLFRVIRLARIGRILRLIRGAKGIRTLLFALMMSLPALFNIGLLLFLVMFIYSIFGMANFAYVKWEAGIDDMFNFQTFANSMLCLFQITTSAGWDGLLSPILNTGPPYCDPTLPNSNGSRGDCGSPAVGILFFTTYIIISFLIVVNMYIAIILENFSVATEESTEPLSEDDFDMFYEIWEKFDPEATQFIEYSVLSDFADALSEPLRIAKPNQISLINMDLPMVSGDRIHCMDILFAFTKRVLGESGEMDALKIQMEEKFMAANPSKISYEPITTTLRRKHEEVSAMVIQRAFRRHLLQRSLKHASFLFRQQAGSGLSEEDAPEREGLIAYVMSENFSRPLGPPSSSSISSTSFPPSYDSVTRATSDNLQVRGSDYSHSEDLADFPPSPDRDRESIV

Row | SMILES | IC50 [1] [µM] | frequency-dependence of sodium channel block (in words) [2]
1 | COCCOCCOCCOCCOCCN1C(=O)NC(=O)C1(c1ccccc1)c1ccccc1 [mPEG5-N-Phenytoin] | > 100 | 
2 | O=C1NC(=O)C(c2ccccc2)(c2ccccc2)N1 [Phenytoin, 5,5-diphenylhydantoin] |  | frequency-dependent block of sodium channels
3 | COCCOCCOCCOCCOCCOCCOCCN1C(=O)NC(=O)C1(c1ccccc1)c1ccccc1 [mPEG7-N-Phenytoin] | > 100 | 
4 | COCCOCCOCCOCCN1C(=O)NC(=O)C1(c1ccccc1)c1ccccc1 [mPEG4-N-Phenytoin] | 88.9 | 
